Experimental data reported in patent publication US12091425B2 (AMGEN INC., priority 2016, dated 2024).

These molecules were tested against T1, Mcl-1/Bim interaction, recombinant human Mcl-1 (171-327) (Homo sapiens, UniProt Q07820) (assay: Cell free Mcl-1: Bim Affinity Assay (Mcl-1 HTRF)). Conditions: TR-FRET, 0.1 nM Mcl-1 (171-327), 0.05 nM biotin-Bim (51-76).
T1 construct: made in house
T1 sequence (Q07820 171-327): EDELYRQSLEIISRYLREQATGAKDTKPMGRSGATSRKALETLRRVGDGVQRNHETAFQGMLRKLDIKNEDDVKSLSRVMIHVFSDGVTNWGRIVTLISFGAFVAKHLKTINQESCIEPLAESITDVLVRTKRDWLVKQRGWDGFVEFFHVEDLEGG
Format: binding
Procedure, shortened: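 Biotin-Bim(51-76) peptide, TR-FRET readout, overnight incubation; IC50 from duplicate competition curves, 4-parameter fit.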
Molecule `CC[C@@H]1CC/C=C/[C@H](OCC(C)(C)O)[C@@H]2CC[C@H]2CN2C[C@@]3(CCCc4cc(Cl)ccc43)COc3ccc(cc32)C(=O)NS1(=O)=O` [Example 972, (1S,3′R,6′R,7′S,8′E,12′R)-6-chloro-12′-ethyl-7′-(2-hydroxy-2-methylpropoxy)-3,4-dihydro-2H,15′H-spiro[naphthalene-1,22′-[20]oxa[13]thia[1,14]diazatetracyclo[14.7.2.0^3,6.0^19,24]pentacosa [8,16,18,24]tetraen]-15′-one 13′,13′-dioxide] has an IC50 of 1.59 nM. `CCN1CC/C=C/[C@H](OCC(=O)O)[C@@H]2CC[C@H]2CN2C[C@@]3(CCCc4cc(Cl)ccc43)COc3ccc(cc32)C(=O)NS1(=O)=O` [Example 44, (((1S,3′R,6′R,7′S,8′E)-6-chloro-12′-ethyl-13′,13′-dioxido-15′-oxo-3,4-dihydro-2H-spiro[naphthalene-1,22′-[20]oxa[13]thia[1,12,14]triazatetracyclo[14.7.2.0^3,6.0^19,24]pentacosa[8,16,18,24]tetraen]-7′-yl)oxy)acetic Acid] gave an IC50 of 0.115 nM. `O=C1NS(=O)(=O)C(CCOC(F)(F)F)CC/C=C/[C@H](O)[C@@H]2CC[C@H]2CN2C[C@@]3(CCCc4cc(Cl)ccc43)COc3ccc1cc32` (single isomer, unassigned) [Example 1012] gave an IC50 of 0.698 nM. In the case of `C=C1CC/C=C/[C@H](O)[C@@H]2CC[C@H]2CN2C[C@@]3(CCCc4cc(Cl)ccc43)COc3ccc(cc32)C(=O)NS1(=O)=O` (single isomer, unassigned) [Example 441], the IC50 is reported as 0.632 nM. In the case of `C/C=C/C1CC(=O)[C@@H]2CC[C@H]2CN2C[C@@]3(CCCc4cc(Cl)ccc43)COc3ccc(cc32)C(=O)NS(=O)(=O)[C@H](C)[C@@H](C)C1` (stereo in doubt) [Example 350, (1S,3′R,6′R,9′R,11′S,12′R)-6-chloro-11′,12′-dimethyl-9′-((1E)-1-propen-1-yl)-3,4-dihydro-2H,7′H,15′H-spiro[naphthalene-1,22′-[20]oxa[13]thia[1,14]diazatetracyclo[14.7.2.0^3,6.0^19,24]pentacosa [16,18,24]triene]-7′,15′-dione 13′,13′-dioxide], the IC50 is reported as 3.73 nM. With `O=C1NS(=O)(=O)C(CO)CCC=CCC2CCC2CN2CC3(CCCc4cc(Cl)ccc43)COc3ccc1cc32` (single isomer, unassigned) [Example 450] the IC50 was 6.76 nM. Molecule `O=C1NS(=O)(=O)[C@H](CO)CC/C=C/[C@H](O)[C@@H]2CC[C@H]2CN2C[C@@]3(CCCc4cc(Cl)ccc43)COc3ccc1cc32` (single isomer, unassigned) [Example 445] has an IC50 of 0.461 nM. With `CC[C@@H]1CC/C=C/[C@H](OCC(=O)N2CCS(=O)(=O)CC2)[C@@H]2CC[C@H]2CN2C[C@@]3(CCCc4cc(Cl)ccc43)COc3ccc(cc32)C(=O)NS1(=O)=O` [Example 999, (1S,3′R,6′R,7′S,8′E,12′R)-6-chloro-7′-(2-(1,1-dioxido-4-thiomorpholinyl)-2-oxoethoxy)-12′-ethyl-3,4-dihydro-2H,15′H-spiro[naphthalene-1,22′-[20]oxa[13]thia[1,14]diazatetracyclo[14.7.2.0^3,6.0^19,24]pentacosa [8,16,18,24]tetraen]-15′-one 13′,13′-dioxide] the IC50 was 0.373 nM. Molecule `COCCOCC1CCC=CC(O)C2CCC2CN2CC3(CCCc4cc(Cl)ccc43)COc3ccc(cc32)C(=O)NS1(=O)=O` (single isomer, unassigned) [Example 447] has an IC50 of 0.378 nM.

Same assay, conditions: cell free Mcl-1:Bim TR-FRET, recombinant human Mcl-1 (171-327)
`O=C1NS(=O)(=O)CCCCCC(=NO)C2CCC2CN2CC3(CCCc4cc(Cl)ccc43)COc3ccc1cc32` (mixture of isomers) [Example 932, (1S,3′R,6′R,7′Z)-6-chloro-3,4-dihydro-2H,7′H,15′H-spiro[naphthalene-1,22′-[20]oxa[13]thia[1,14]diazatetracyclo[14.7.2.0^3,6.0^19,24]pentacosa [16,18,24]triene]-7,15′-dione 7-OXIME 13′,13′-dioxide and (1S,3′R,6′R,7′E)-6-chloro-3,4-dihydro-2H,7′H,15′H-spiro[naphthalene-1,22′-[20]oxa[13]thia[1,14]diazatetracyclo[14.7.2.0^3,6.0^19,24]pentacosa [16,18,24]triene]-7′,15′-dione 7-OXIME 13′,13′-dioxide] gave an IC50 of 3.69 nM. `O=C1NS(=O)(=O)CC/C=C\C[C@H](O)[C@@H]2CC[C@H]2CN2C[C@@]3(CCCc4ccccc43)COc3ccc1cc32` [Example 807, (1S,3′R,6′R,7′S,9′Z)-7′-hydroxy-3,4-dihydro-2H,15′H-spiro[naphthalene-1,22′-[20]oxa[13]thia [1,14]diazatetracyclo[14.7.2.0^3,6.0^19,24]pentacosa[9,16,18,24]tetraen]-15′-one 13′,13′-dioxide] was tested, and the IC50 was 42.3 nM. Work on `CC(C)(O)[C@@H]1CC/C=C/[C@H](O)[C@@H]2CC[C@H]2CN2C[C@@]3(CCCc4cc(Cl)ccc43)COc3ccc(cc32)C(=O)NS1(=O)=O` (single isomer, unassigned) [Example 697] yielded an IC50 of 0.746 nM. With `O=C1NS(=O)(=O)CCC[C@]2(O)CCO[C@H](C2)[C@@H]2CC[C@H]2CN2C[C@@]3(CCCc4cc(Cl)ccc43)COc3ccc1cc32` (single isomer, unassigned) [Example 900] the IC50 was 4.33 nM. For `O=C1NS(=O)(=O)C/C=C/CCC[C@@H]2CC[C@H]2CN2C[C@@]3(CCCc4cc(Cl)ccc43)COc3ccc1cc32` (single isomer, unassigned) [Example 498], the IC50 was 9.03 nM. Molecule `O=C1NS(=O)(=O)CCCC[C@H](O)C[C@@H]2CC[C@H]2CN2C[C@@]3(CCCc4cc(Cl)ccc43)COc3ccc1cc32` (single isomer, unassigned) [Example 867, (1S,3′R,6′S,8′S)-6-chloro-8′-hydroxy-3,4-dihydro-2H,15′H-spiro[naphthalene-1,22′-[20]oxa[13]thia[1,14]diazatetracyclo[14.7.2.0^3,6.0^19,24]pentacosa[16,18,24]trien]-15′-one 13′,13′-dioxide or (1S,3′R,6′S,8′R)-6-chloro-8′-hydroxy-3,4-dihydro-2H,15′H-spiro[naphthalene-1,22′-[20]oxa[13]thia[1,14]diazatetracyclo[14.7.2.0^3,6.0^19,24]pentacosa[16,18,24]trien]-15′-one 13′,13′-dioxide] has an IC50 of 6.81 nM. Molecule `COC[C@@H]1C/C=C/[C@H](O)[C@@H]2CC[C@H]2CN2C[C@@]3(CCCc4cc(Cl)ccc43)COc3ccc(cc32)C(=O)NS1(=O)=O` (single isomer, unassigned) [Example 773] has an IC50 of 2.35 nM. For `O=C1NS(=O)(=O)C[C@H](CO)/C=C/C[C@H](O)[C@@H]2CC[C@H]2CN2C[C@@]3(CCCc4cc(Cl)ccc43)COc3ccc1cc32` (single isomer, unassigned) [Example 706], the IC50 was 4.51 nM. For `O=C1NS(=O)(=O)CCC[C@]2(O)CCO[C@H](C2)[C@@H]2CC[C@H]2CN2C[C@@]3(CCCc4cc(Cl)ccc43)COc3ccc1cc32` (single isomer, unassigned) [Example 924], the IC50 was 5.07 nM. For `CC[C@@H]1CC/C=C/[C@H](OC2COC2)[C@@H]2CC[C@H]2CN2C[C@@]3(CCCc4cc(Cl)ccc43)COc3ccc(cc32)C(=O)NS1(=O)=O` [Example 783, (1S,3′R,6′R,7′S,8′E,12′R)-6-chloro-12′-ethyl-7′-(3-oxetanyloxy)-3,4-dihydro-2H,15′H-spiro[naphthalene-1,22′-[20]oxa[13]thia[1,14]diazatetracyclo [14.7.2.0^3,6.0^19,24]pentacosa[8,16,18,24]tetraen]-15′-one 13′,13′-dioxide], the IC50 was 1.04 nM.
